Where no end group is shown, it is not given here.
Legend:
[1] = system: S. aureus LT440/09 (cMRSA); experiment: Minimum inhibitory concentrations on agar plates (spotted serial dilutions); assay type: cell-based, Staphylococcus aureus; details: S. aureus LT440/09 (cMRSA) versus S. aureus SG511 (MSSA); serial dilutions in half-concentrated Müller-Hinton broth, 10 µl spotted on Müller Hinton agar lawn, overnight; lichenicidin as isopropanol wash extract
Procedure: (§1) For the comparison of the antibacterial efficacy of lichenicidin to other lantibiotics, Pep5 [52] and nisin [53] were purified as described previously, and mersacidin was obtained from Sanofi-Aventis (Frankfurt, Germany). Serial dilutions of the lantibiotics and the isopropanol wash extract were prepared in half-concentrated Müller-Hinton broth. Fresh colonies of all indicator organisms were used to prepare cell suspensions of about 5×10^6 colony forming units per ml which were employed to inoculate Müller Hinton agar plates. Ten µl of the lantibiotic solutions were spotted onto the indicator plates. The highest dilution yielding a clear inhibition zone on the lawn was detected by visual inspection after incubation overnight.

[2] = system: S. aureus ATCC 33592 (MRSA); experiment: as above; assay type: cell-based, Staphylococcus aureus; details: S. aureus ATCC 33592 (MRSA) versus S. aureus SG511 (MSSA); serial dilutions in half-concentrated Müller-Hinton broth, 10 µl spotted on Müller Hinton agar lawn, overnight; lichenicidin as isopropanol wash extract
Procedure: as §1

nisin
minimum inhibitory concentration on agar plates, fold higher than against S. aureus SG511 [1]: 2.67±1.03 fold | minimum inhibitory concentration on agar plates, fold higher than against S. aureus SG511 [2]: 1.83±0.41 fold

mersacidin: lantibiotic obtained from Sanofi-Aventis (CTFTLPGGGGVCTLTSECIC; also: lantibiotic: thioether bridges, places not given here; UniProt P43683 49-68, looked up)
minimum inhibitory concentration on agar plates, fold higher than against S. aureus SG511 [1]: 4.7±1.6 fold | minimum inhibitory concentration on agar plates, fold higher than against S. aureus SG511 [2]: 4.8±1.6 fold
